In brackets after ≈: the same amount, converted by molar mass. Where two headings read alike, the source gives them in different places. Ends that are not written are not given here.
Columns and labels:
MRSA P1381 [1] = assay: Mouse peritonitis model; type: in vivo, BALB/c mice; conditions: n = 6
Procedure: Six to eight-week-old male BALB/c mice (18–21 g) were purchased from the Animal Center for Disease Control and Prevention (Hubei, China) and maintained under specific pathogen-free conditions at 25 ± 2°C and 50 ± 5% humidity, on a 12 h/12 h light/dark cycle.
All methods were performed in accordance with the relevant guidelines ([Dai et al., 2008]; [Peng et al., 2017]). The mice were intraperitoneally (i.p.) injected with 0.5 mL/mouse (5.85 × 10^7 CFU) of the exponential phase MRSA P1381 inoculum in physiological saline containing 5% (wt/v) mucin. At 1 h after the bacterial infection, the mice were i.p. injected with 0.4 mL/mouse of physiological saline (I) (to serve as a negative control), marcin-18 peptide (10 mg/kg) (II), marcin-18 peptide (25 mg/kg) (III), meucin-18 peptide (25 mg/kg) (IV), megicin-18 peptide (25 mg/kg) (V), and vancomycin (25 mg/kg) (VI). The vancomycin dose was set based on previous studies ([Cavanagh et al., 2013]; [Wang et al., 2018]). Each group included 6 mice. After another 24 h post administration, subject peritonea were lavaged with 1 mL of physiological saline and lavage fluids were then collected. Ascites were diluted and plated on LB agar so that the number of bacterial colonies could be counted. The ability of the three peptides to rescue mice from lethal bacteremia was observed 2–4 times daily and survival was tracked for 7 days.

MRSA P1381 [2] = conditions: methicillin-resistant clinical isolate; comparison values; ref Zeng et al., 2004, 2012; Cao et al., 2012a; cited from earlier work
Description: (§1) Table 1 In Vitro antimicrobial activities of marcin-18 and its homologs compared with other peptides and antibiotics. | column: MIC (μM) / BmKn2; MIC (μM) / Van

MRSA P1369 = conditions: methicillin-resistant clinical isolate; comparison values; ref Zeng et al., 2004, 2012; Cao et al., 2012a; cited from earlier work
Description: as §1

MRSA P1386 = conditions: methicillin-resistant clinical isolate; comparison values; ref Zeng et al., 2004, 2012; Cao et al., 2012a; cited from earlier work
Description: as §1

PRSA P1383 = conditions: penicillin-resistant clinical isolate; comparison values; ref Zeng et al., 2004, 2012; Cao et al., 2012a; cited from earlier work
Description: as §1

MRSA P1374 [3] = conditions: methicillin-resistant clinical isolate; comparison values; ref Zeng et al., 2004, 2012; Cao et al., 2012a; cited from earlier work
Description: as §1

PRSA P1389 [4] = conditions: penicillin-resistant clinical isolate; comparison values; ref Zeng et al., 2004, 2012; Cao et al., 2012a; cited from earlier work
Description: as §1

[5] = test system: Staphylococcus aureus AB208193; assay: MIC, broth microdilution; type: cell-based; conditions: LB medium, 10^5–10^6 CFU/mL, 16–18 h at 37°C, triplicate
Procedure: (§2) The antimicrobial activity was determined via a broth microdilution assay according to the procedure recommended by the Clinical and Laboratory Standards Institute with some modifications ([Hou et al., 2011]; [Li et al., 2016]). Bacteria were cultured in Luria-Bertani (LB) broth to OD600 = 0.6 at 37°C, then diluted to 10^5–10^6 CFU/mL in LB medium. Peptides were serially double diluted to a gradient concentration range from 48.3 to 1.5 μM in physiological saline. Eighty microliters of the bacterial suspension and 20 μL of diluted peptide at varying concentrations were added to 96-well plates, and then incubated for 16–18 h at 37°C with continuous shaking at 250 rpm. The antimicrobial activity of ampicillin and kanamycin were also tested as positive controls. Experiments were performed in triplicate. The minimum inhibitory concentration (MIC) was determined as the lowest peptide concentration at which no bacterial growth was observed.

[6] = test system: Micrococcus luteus AB93113; assay: MIC, broth microdilution; type: cell-based; conditions: LB medium, 10^5–10^6 CFU/mL, 16–18 h at 37°C, triplicate
Procedure: as §2

[7] = test system: Pseudomonas aeruginosa ATCC9027; assay: MIC, broth microdilution; type: cell-based; conditions: LB medium, 10^5–10^6 CFU/mL, 16–18 h at 37°C, triplicate
Procedure: as §2

[8] = test system: Staphylococcus epidermidis AB208188; assay: MIC, broth microdilution; type: cell-based; conditions: LB medium, 10^5–10^6 CFU/mL, 16–18 h at 37°C, triplicate
Procedure: as §2

[9] = test system: Staphylococcus epidermidis AB208187; assay: MIC, broth microdilution; type: cell-based; conditions: LB medium, 10^5–10^6 CFU/mL, 16–18 h at 37°C, triplicate
Procedure: as §2

[10] = test system: Staphylococcus aureus ATCC25923; assay: MIC, broth microdilution; type: cell-based; conditions: LB medium, 10^5–10^6 CFU/mL, 16–18 h at 37°C, triplicate
Procedure: as §2

[11] = test system: Bacillus subtilis AB91021; assay: MIC, broth microdilution; type: cell-based; conditions: LB medium, 10^5–10^6 CFU/mL, 16–18 h at 37°C, triplicate
Procedure: as §2

[12] = test system: Bacillus thuringiensis AB92037; assay: MIC, broth microdilution; type: cell-based; conditions: LB medium, 10^5–10^6 CFU/mL, 16–18 h at 37°C, triplicate
Procedure: as §2

[13] = test system: Staphylococcus aureus ATCC6538; assay: MIC, broth microdilution; type: cell-based; conditions: LB medium, 10^5–10^6 CFU/mL, 16–18 h at 37°C, triplicate
Procedure: as §2

Escherichia coli AB94012 = assay: MIC, broth microdilution; type: cell-based; conditions: LB medium, 10^5–10^6 CFU/mL, 16–18 h at 37°C, triplicate
Procedure: as §2

[14] = test system: Escherichia coli ATCC25922; assay: MIC, broth microdilution; type: cell-based; conditions: LB medium, 10^5–10^6 CFU/mL, 16–18 h at 37°C, triplicate
Procedure: as §2

MRSA P1381 [15] = assay: MIC, broth microdilution; type: cell-based, Staphylococcus aureus; conditions: methicillin-resistant clinical isolate, LB medium, 10^5–10^6 CFU/mL, 16–18 h at 37°C, triplicate
Procedure: as §2

MRSA P1374 [16] = assay: MIC, broth microdilution; type: cell-based, Staphylococcus aureus; conditions: methicillin-resistant clinical isolate, LB medium, 10^5–10^6 CFU/mL, 16–18 h at 37°C, triplicate
Procedure: as §2

PRSA P1389 [17] = assay: MIC, broth microdilution; type: cell-based, Staphylococcus aureus; conditions: penicillin-resistant clinical isolate, LB medium, 10^5–10^6 CFU/mL, 16–18 h at 37°C, triplicate
Procedure: as §2

S. aureus AB94004 [18] = assay: Competition assay with LPS or LTA (MIC); type: cell-based, Staphylococcus aureus; conditions: 30 min, n = 3; for MIC, peptide treated with LPS 1: 1 mg/mL peptide + equal volume 5 mg/mL LPS from E. coli; for MIC, peptide treated with LTA: 1 mg/mL peptide + equal volume 5 mg/mL LTA from S. aureus; for MIC, peptide treated with LPS 1+LTA: peptide incubated with LPS 1 and LTA
Procedure: 1 mg/mL of peptides were incubated with an equal volume of 5 mg/mL of the lipopolysaccharide (LPS, Sigma-Aldrich: L3012/L8643) or lipoteichoic acid (LTA, Sigma-Aldrich: L2515) for 30 min. The MICs of peptides treated with LPS or LTA against S. aureus AB94004 were subsequently measured.

[19] = test system: Staphylococcus aureus AB94004; conditions: comparison values; ref Zeng et al., 2004, 2012; Cao et al., 2012a; cited from earlier work
Description: (§3) Table 1 In Vitro antimicrobial activities of marcin-18 and its homologs compared with other peptides and antibiotics. | column: MIC (μM) / BmKn2; MIC (μM) / Amp; MIC (μM) / Kana

[20] = test system: Escherichia coli ATCC25922; conditions: comparison values; ref Zeng et al., 2004, 2012; Cao et al., 2012a; cited from earlier work
Description: as §3

[21] = test system: Staphylococcus aureus AB94004; assay: MIC, broth microdilution; type: cell-based; conditions: legend of Figure 6
Procedure: as §2

S. aureus AB94004 [22] = assay: SYTOX green fluorescence measurement (membrane integrity); type: cell-based, Staphylococcus aureus; conditions: positive control; 5 μM SYTOX green; n = 3
Procedure: S. aureus AB94004 were cultured to exponential phase (ca. 10^7 CFU/mL), centrifuged and suspended in physiological saline. Then the fluorescence dye SYTOX green (Invitrogen) was added at a final concentration of 5 μM. After incubation for 10 min, 50 μL bacterial culture and equal volume of peptides serially diluted in physiological saline at final concentrations of 1 × MIC, 2 × MIC, and 4 × MIC were added in a Greiner 96-well flat-bottom black plate. Physiological saline and MSI 78 were used as negative and positive controls. Fluorescence was measured over 30 min at the excitation and emission wavelengths of 488 and 525 nm, respectively.

Compound | MIC [5] [µM] | MIC [6] [µM] | MIC [7] [µM] | MIC [8] [µM] | MIC [9] [µM] | MIC [10] [µM] | MIC [11] [µM] | MIC [12] [µM] | MIC [13] [µM] | MIC (Escherichia coli AB94012) [µM] | MIC [14] [µM] | MIC (MRSA P1381 [15]) [µM] | MIC (MRSA P1374 [16]) [µM] | MIC (PRSA P1389 [17]) [µM] | also measured
CN[C@H](CC(C)C)C(=O)N[C@H]1C(=O)N[C@@H](CC(N)=O)C(=O)N[C@H]2C(=O)N[C@H]3C(=O)N[C@H](C(=O)N[C@H](C(=O)O)c4cc(O)cc(O)c4-c4cc3ccc4O)[C@H](O)c3ccc(c(Cl)c3)Oc3cc2cc(c3O[C@@H]2O[C@H](CO)[C@@H](O)[C@H](O)[C@H]2O[C@H]2C[C@](C)(N)[C@H](O)[C@H](C)O2)Oc2ccc(cc2Cl)[C@H]1O [Van, vancomycin] | – | – | – | – | – | – | – | – | – | – | – | – | – | – | survival of infected mice (MRSA P1381 [1]; 25 mg/kg i.p. single dose 1 h after i.p. 5.85 × 10^7 CFU MRSA P1381, 7 days): 100%; bacteria in ascites of antibiotic-treated group (MRSA P1381 [1]; 25 mg/kg i.p., peritoneal lavage 24 h after administration): few detectable bacteria; MIC (MRSA P1381 [2]): 2.1 µM (≈ 3.04 µg/mL); MIC (MRSA P1369): 4.2 µM (≈ 6.09 µg/mL); MIC (MRSA P1386): 2.1 µM (≈ 3.04 µg/mL); MIC (PRSA P1383): 4.2 µM (≈ 6.09 µg/mL); MIC (MRSA P1374 [3]): 4.2 µM (≈ 6.09 µg/mL); MIC (PRSA P1389 [4]): 4.2 µM (≈ 6.09 µg/mL)
FFGHLFKLATKIIPSLFR-NH2 [Marcin-18] | 2.9 | 23.4 | 5.9 | 2.9 | 2.9 | 2.9 | 2.9 | 2.9 | 1.5 | 11.7 | 5.9 | 1.5 | 2.9 | 2.9 | MIC, peptide treated with LPS 1 (S. aureus AB94004 [18]): 2.9 µM; MIC, peptide treated with LPS 2 (S. aureus AB94004 [18]; 1 mg/mL peptide + equal volume 5 mg/mL LPS from P. aeruginosa): 2.9 µM; MIC, peptide treated with LTA (S. aureus AB94004 [18]): 2.9 µM; MIC, peptide treated with LPS 1+LTA (S. aureus AB94004 [18]): 2.9 µM
CC1(C)S[C@@H]2[C@H](NC(=O)[C@H](N)c3ccccc3)C(=O)N2[C@H]1C(=O)O [Amp, ampicillin] | – | – | – | – | – | – | – | – | – | – | – | – | – | – | MIC [19]: 67.3 µM (≈ 23.5 µg/mL); MIC [20]: 33.7 µM (≈ 11.8 µg/mL)
FFGHLFKLATKIIPSLFQ-NH2 [Meucin-18] | 3.0 | 47.5 | 11.9 | 1.5 | 3.0 | 3.0 | 3.0 | 3.0 | 1.5 | 23.7 | 11.9 | 1.5 | 3.0 | 3.0 | –
GIGKFLKKAKKFGKAFVKILKK-NH2 (C-terminus assumed) [MSI 78] | – | – | – | – | – | – | – | – | – | – | – | – | – | – | MIC of control substances [21]: 2.5 µM; SYTOX green fluorescence (S. aureus AB94004 [22]): stable increase
FFGALFKLATKIIPSLFR-NH2 [Megicin-18] | 3.0 | >48.3 | 12.1 | 1.5 | 1.5 | 3.0 | 3.0 | 1.5 | 1.5 | >48.3 | 12.1 | 3.0 | 3.0 | 1.5 | MIC, peptide treated with LPS 1 (S. aureus AB94004 [18]): 3 µM; MIC, peptide treated with LTA (S. aureus AB94004 [18]): 3 µM; MIC, peptide treated with LPS 1+LTA (S. aureus AB94004 [18]): 3 µM
CC[C@H](C)[C@H](NC(=O)CN)C(=O)NCC(=O)N[C@@H](C)C(=O)N[C@H](C(=O)N[C@@H](CC(C)C)C(=O)N[C@@H](CCCCN)C(=O)N[C@H](C(=O)N[C@@H](CC(C)C)C(=O)N[C@H](C(=O)N[C@H](C(=O)NCC(=O)N[C@@H](CC(C)C)C(=O)N1CCC[C@H]1C(=O)N[C@@H](C)C(=O)N[C@@H](CC(C)C)C(=O)N[C@H](C(=O)N[C@@H](CO)C(=O)N[C@@H](Cc1c[nH]c2ccccc12)C(=O)N[C@H](C(=O)N[C@@H](CCCCN)C(=O)N[C@@H](CCCNC(=N)N)C(=O)N[C@@H](CCCCN)C(=O)N[C@@H](CCCNC(=N)N)C(=O)N[C@@H](CCC(N)=O)C(=O)N[C@@H](CCC(N)=O)C(N)=O)[C@@H](C)CC)[C@@H](C)CC)[C@@H](C)O)[C@@H](C)O)C(C)C)C(C)C [melittin] | – | – | – | – | – | – | – | – | – | – | – | – | – | – | MIC of control substances [21]: 2.2 µM

Reference: PMC5987058, “Therapeutic Potential of a Scorpion Venom-Derived Antimicrobial Peptide and Its Homologs Against Antibiotic-Resistant Gram-Positive Bacteria” (Frontiers in Microbiology, 2018)
